Data from PubChem BioAssay (NCI).
“And” between values parts separate entries of the source, which are not always exact repeats. Equal values may be shown once.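 Growth conditions: 96-well plates. Treatment: test compound, 48 hours, 5 concentrations. Analysis: linear interpolation between bracketing concentrations; unreached endpoints set to highest concentration. GI50 is the concentration that inhibits growth by half. The concentration for full growth arrest is given as TGI.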

Assays:
Experiment in all cases: DTP human tumour cell line panel, 48 h
OVCAR-5 ovarian = tested on: OVCAR-5 ovarian
T-47D breast = tested on: T-47D breast
TK-10 renal = tested on: TK-10 renal
EKVX NSCLC = tested on: EKVX NSCLC
SF-268 CNS = tested on: SF-268 CNS
RXF 393 renal = tested on: RXF 393 renal
SK-MEL-5 melanoma = tested on: SK-MEL-5 melanoma
HOP-62 NSCLC = tested on: HOP-62 NSCLC
BT-549 breast = tested on: BT-549 breast
SR leukemia = tested on: SR leukemia
OVCAR-4 ovarian = tested on: OVCAR-4 ovarian
U251 CNS = tested on: U251 CNS
SF-539 CNS = tested on: SF-539 CNS
SK-MEL-28 melanoma = tested on: SK-MEL-28 melanoma
SK-MEL-2 melanoma = tested on: SK-MEL-2 melanoma
MDA-MB-231 breast = tested on: MDA-MB-231 breast
PC-3 prostate = tested on: PC-3 prostate
RPMI-8226 leukemia = tested on: RPMI-8226 leukemia
HT29 colon = tested on: HT29 colon
OVCAR-8 ovarian = tested on: OVCAR-8 ovarian
MDA-MB-435 = tested on: MDA-MB-435
UO-31 renal = tested on: UO-31 renal
SW-620 colon = tested on: SW-620 colon
NCI-H23 lung = tested on: NCI-H23 lung
MALME-3M melanoma = tested on: MALME-3M melanoma
HOP-92 NSCLC = tested on: HOP-92 NSCLC
HL-60(TB) leukemia = tested on: HL-60(TB) leukemia
A498 renal = tested on: A498 renal
HCC-2998 colon = tested on: HCC-2998 colon
NCI-H522 lung = tested on: NCI-H522 lung
SNB-75 CNS = tested on: SNB-75 CNS
IGROV1 ovarian = tested on: IGROV1 ovarian
SK-OV-3 ovarian = tested on: SK-OV-3 ovarian
SNB-19 CNS = tested on: SNB-19 CNS
K-562 leukemia = tested on: K-562 leukemia
MOLT-4 leukemia = tested on: MOLT-4 leukemia
LOX IMVI melanoma = tested on: LOX IMVI melanoma
ACHN renal = tested on: ACHN renal
COLO 205 colon = tested on: COLO 205 colon
UACC-62 melanoma = tested on: UACC-62 melanoma
SN12C renal = tested on: SN12C renal
HCT-15 colon = tested on: HCT-15 colon
UACC-257 melanoma = tested on: UACC-257 melanoma
CAKI-1 renal = tested on: CAKI-1 renal
CCRF-CEM leukemia = tested on: CCRF-CEM leukemia
KM12 colon = tested on: KM12 colon
DU-145 prostate = tested on: DU-145 prostate
NCI-H226 lung = tested on: NCI-H226 lung
SF-295 CNS = tested on: SF-295 CNS
HCT-116 colon = tested on: HCT-116 colon
M14 melanoma = tested on: M14 melanoma
A549 NSCLC = tested on: A549 NSCLC
NCI/ADR-RES ovarian = tested on: NCI/ADR-RES ovarian
786-0 renal = tested on: 786-0 renal
NCI-H460 lung = tested on: NCI-H460 lung
HS 578T breast = tested on: HS 578T breast
OVCAR-3 ovarian = tested on: OVCAR-3 ovarian
MCF7 breast = tested on: MCF7 breast
MDA-N = tested on: MDA-N

Structure (SMILES): CN(C)CCCN1c2ccccc2Sc2ccc(Cl)cc21
- GI50 (OVCAR-5 ovarian): 5.2 µM and 11.8 µM
- TGI (OVCAR-5 ovarian): 17.6 µM and 24.8 µM
- GI50 (T-47D breast): 5.92 µM and 8.6 µM
- TGI (T-47D breast): 20 µM and 23.4 µM
- GI50 (TK-10 renal): 9.64 µM and 6.76 µM
- TGI (TK-10 renal): 22.3 µM and 20.3 µM
- GI50 (EKVX NSCLC): 12.7 µM and 11.8 µM
- TGI (EKVX NSCLC): 28.1 µM and 28 µM
- GI50 (SF-268 CNS): 8.89 µM and 5.25 µM
- TGI (SF-268 CNS): 21.4 µM and 18.5 µM
- GI50 (RXF 393 renal): 3.16 µM and 2.85 µM
- TGI (RXF 393 renal): 12.2 µM and 11 µM
- GI50 (SK-MEL-5 melanoma): 1.71 µM and 1.77 µM
- TGI (SK-MEL-5 melanoma): 3.11 µM and 3.35 µM
- GI50 (HOP-62 NSCLC): 14.6 µM and 11.7 µM
- TGI (HOP-62 NSCLC): 28.8 µM and 24.9 µM
- GI50 (BT-549 breast): 10.9 µM and 11.2 µM
- TGI (BT-549 breast): 23.5 µM and 24.4 µM
- GI50 (SR leukemia): 3.01 µM and 3.94 µM
- TGI (SR leukemia): 11 µM and 20.2 µM
- GI50 (OVCAR-4 ovarian): 7.84 µM and 9.23 µM
- TGI (OVCAR-4 ovarian): 20.7 µM and 22.5 µM
- GI50 (U251 CNS): 2.62 µM and 3.46 µM
- TGI (U251 CNS): 7.9 µM and 14.4 µM
- GI50 (SF-539 CNS): 3.22 µM and 11.4 µM
- TGI (SF-539 CNS): 7.79 µM and 26 µM
- GI50 (SK-MEL-28 melanoma): 2.03 µM and 3.65 µM
- TGI (SK-MEL-28 melanoma): 4.69 µM and 14.4 µM
- GI50 (SK-MEL-2 melanoma): 3.81 µM and 5.52 µM
- TGI (SK-MEL-2 melanoma): 13.4 µM and 19.5 µM
- GI50 (MDA-MB-231 breast): 1.99 µM and 2.1 µM
- TGI (MDA-MB-231 breast): 5.35 µM and 6.87 µM
- GI50 (PC-3 prostate): 11.9 µM and 4.52 µM
- TGI (PC-3 prostate): 26.3 µM and 17.3 µM
- GI50 (RPMI-8226 leukemia): 13.6 µM
- TGI (RPMI-8226 leukemia): 32.6 µM
- GI50 (HT29 colon): 3.26 µM and 3.96 µM
- TGI (HT29 colon): 10.8 µM and 13.6 µM
- GI50 (OVCAR-8 ovarian): 4.07 µM and 9.24 µM
- TGI (OVCAR-8 ovarian): 15.5 µM and 22.8 µM
- GI50 (MDA-MB-435): 1.94 µM and 2.21 µM
- TGI (MDA-MB-435): 4.04 µM and 6.09 µM
- GI50 (UO-31 renal): 2.89 µM and 3.46 µM
- TGI (UO-31 renal): 13.7 µM and 17.2 µM
- GI50 (SW-620 colon): 3.57 µM and 3.69 µM
- TGI (SW-620 colon): 13.7 µM and 14.6 µM
- GI50 (NCI-H23 lung): 8.92 µM and 13.3 µM
- TGI (NCI-H23 lung): 22.2 µM and 27.6 µM
- GI50 (MALME-3M melanoma): 14.9 µM and 3.04 µM
- TGI (MALME-3M melanoma): 31.5 µM and 15.8 µM
- GI50 (HOP-92 NSCLC): 1.82 µM
- TGI (HOP-92 NSCLC): 8.71 µM
- GI50 (HL-60(TB) leukemia): 4.98 µM and 11.6 µM
- TGI (HL-60(TB) leukemia): 20.7 µM and 28.6 µM
- GI50 (A498 renal): 10.5 µM and 3.46 µM
- TGI (A498 renal): 23.7 µM and 16.6 µM
- GI50 (HCC-2998 colon): 1.97 µM
- TGI (HCC-2998 colon): 4.14 µM
- GI50 (NCI-H522 lung): 2.74 µM and 2.79 µM
- TGI (NCI-H522 lung): 7.16 µM and 8.9 µM
- GI50 (SNB-75 CNS): 4.63 µM and 6.09 µM
- TGI (SNB-75 CNS): 19.7 µM and 23 µM
- GI50 (IGROV1 ovarian): 11.7 µM and 4.63 µM
- TGI (IGROV1 ovarian): 26.7 µM and 18.4 µM
- GI50 (SK-OV-3 ovarian): 2.76 µM and 3.22 µM
- TGI (SK-OV-3 ovarian): 7.62 µM and 9.3 µM
- GI50 (SNB-19 CNS): 7.01 µM and 11.9 µM
- TGI (SNB-19 CNS): 20.9 µM and 25 µM
- GI50 (K-562 leukemia): 3.16 µM
- TGI (K-562 leukemia): 11.3 µM
- GI50 (MOLT-4 leukemia): 4.78 µM and 6.84 µM
- TGI (MOLT-4 leukemia): 18.4 µM and 23.7 µM
- GI50 (LOX IMVI melanoma): 10.8 µM and 10.3 µM
- TGI (LOX IMVI melanoma): 23.4 µM and 24.5 µM
- GI50 (ACHN renal): 4.06 µM and 5.71 µM
- TGI (ACHN renal): 14.8 µM and 18.3 µM
- GI50 (COLO 205 colon): 1.89 µM and 2.85 µM
- TGI (COLO 205 colon): 3.77 µM and 7.68 µM
- GI50 (UACC-62 melanoma): 1.94 µM and 2.07 µM
- TGI (UACC-62 melanoma): 4.01 µM and 5.11 µM
- GI50 (SN12C renal): 3.85 µM and 4.87 µM
- TGI (SN12C renal): 14.8 µM and 17.7 µM
- GI50 (HCT-15 colon): 3.69 µM and 4.7 µM
- TGI (HCT-15 colon): 14.3 µM and 16.6 µM
- GI50 (UACC-257 melanoma): 2.08 µM and 3.24 µM
- TGI (UACC-257 melanoma): 4.33 µM and 13 µM
- GI50 (CAKI-1 renal): 6.78 µM and 6.91 µM
- TGI (CAKI-1 renal): 20.7 µM and 20.8 µM
- GI50 (CCRF-CEM leukemia): 7.38 µM
- TGI (CCRF-CEM leukemia): 24.3 µM
- GI50 (KM12 colon): 4.23 µM and 5.55 µM
- TGI (KM12 colon): 14.8 µM and 17.6 µM
- GI50 (DU-145 prostate): 11.7 µM and 11.2 µM
- TGI (DU-145 prostate): 24.1 µM and 23.4 µM
- GI50 (NCI-H226 lung): 13.1 µM and 15.2 µM
- TGI (NCI-H226 lung): 29.8 µM and 29.1 µM
- GI50 (SF-295 CNS): 4.13 µM and 8.91 µM
- TGI (SF-295 CNS): 17.3 µM and 22.9 µM
- GI50 (HCT-116 colon): 3.28 µM and 3.6 µM
- TGI (HCT-116 colon): 10.9 µM and 12.8 µM
- GI50 (M14 melanoma): 2.03 µM and 2.58 µM
- TGI (M14 melanoma): 3.89 µM and 6.18 µM
- GI50 (A549 NSCLC): 3.31 µM and 3.37 µM
- TGI (A549 NSCLC): 11.3 µM and 14.1 µM
- GI50 (NCI/ADR-RES ovarian): 11.9 µM and 9.23 µM
- TGI (NCI/ADR-RES ovarian): 25.1 µM and 22.4 µM
- GI50 (786-0 renal): 3.81 µM and 12 µM
- TGI (786-0 renal): 14.2 µM and 26.6 µM
- GI50 (NCI-H460 lung): 4.72 µM and 10.8 µM
- TGI (NCI-H460 lung): 17.1 µM and 23.8 µM
- GI50 (HS 578T breast): 4.32 µM and 3.77 µM
- TGI (HS 578T breast): 24.4 µM and 21 µM
- GI50 (OVCAR-3 ovarian): 3.83 µM and 6.36 µM
- TGI (OVCAR-3 ovarian): 12.6 µM and 18.8 µM
- GI50 (MCF7 breast): 3.15 µM and 3.46 µM
- TGI (MCF7 breast): 12.6 µM and 13.7 µM

Structure (SMILES): COc1ccc(C2=C(OC(=O)N(C)C)c3cccn3-c3cc(Cl)ccc3S2)cc1
- TGI (T-47D breast): > 10 µM
- TGI (TK-10 renal): > 10 µM
- TGI (EKVX NSCLC): > 10 µM
- TGI (SF-268 CNS): > 10 µM
- TGI (RXF 393 renal): > 10 µM
- TGI (SK-MEL-5 melanoma): > 10 µM
- TGI (HOP-62 NSCLC): > 10 µM
- TGI (SR leukemia): > 10 µM
- TGI (OVCAR-4 ovarian): > 10 µM
- TGI (SK-MEL-28 melanoma): > 10 µM
- TGI (MDA-MB-231 breast): > 10 µM
- TGI (PC-3 prostate): > 10 µM
- TGI (RPMI-8226 leukemia): > 10 µM
- TGI (HT29 colon): > 10 µM
- TGI (OVCAR-8 ovarian): > 10 µM
- TGI (MDA-MB-435): > 10 µM
- TGI (SW-620 colon): > 10 µM
- TGI (NCI-H23 lung): > 10 µM
- TGI (MALME-3M melanoma): > 10 µM
- TGI (HOP-92 NSCLC): > 10 µM
- TGI (HL-60(TB) leukemia): > 10 µM
- TGI (HCC-2998 colon): > 10 µM
- TGI (SNB-75 CNS): > 10 µM
- TGI (IGROV1 ovarian): > 10 µM
- TGI (SK-OV-3 ovarian): > 10 µM
- TGI (K-562 leukemia): > 10 µM
- TGI (MOLT-4 leukemia): > 10 µM
- TGI (LOX IMVI melanoma): > 10 µM
- TGI (COLO 205 colon): > 10 µM
- TGI (UACC-62 melanoma): > 10 µM
- TGI (SN12C renal): > 10 µM
- TGI (HCT-15 colon): > 10 µM
- TGI (UACC-257 melanoma): > 10 µM
- TGI (CAKI-1 renal): > 10 µM
- TGI (CCRF-CEM leukemia): > 10 µM
- TGI (KM12 colon): > 10 µM
- TGI (DU-145 prostate): > 10 µM
- TGI (SF-295 CNS): > 10 µM
- TGI (M14 melanoma): > 10 µM
- TGI (A549 NSCLC): > 10 µM
- TGI (MDA-N): > 10 µM
- TGI (786-0 renal): > 10 µM
- TGI (MCF7 breast): > 10 µM
